US20210345607A1, “MICROEMULSION FORMULATION CONTAINING CLACYFOS HERBICIDE, PREPARATION METHOD THEREFOR AND USE THEREOF” (Central China Normal University, priority 2018, published 2021)

Experiments:
[1] = system: wheat; assay: Safety of 15% and 25% clacyfos microemulsion used in wheat fields, increase in production (B9); assay type: in vivo
Text: The microemulsion of 15% clacyfos (the amount of clacyfos added is 15%, the preparation process is referred to preparation example A3) is in the dosage range of 180 g/hm^2 to 600 g/hm^2. The microemulsion of 25% clacyfos (the addition amount of the clacyfos is 25%, the preparation process is referred to preparation example A7) is in the dosage range of 150 g/hm^2 to 720 g/hm^2. At various testing areas, clacyfos was used by stems and leaves treatment of wheat field wheat seedlings.

[2] = system: Dicotyledonous and sedge weeds; assay: Clacyfos weeding spectrum, indoor and field tests (B12); assay type: in vivo; details: recommended dosage of 450 g/hm^2
Text: Combining the results of indoor and field tests of clacyfos, the herbicidal spectrum of clacyfos can be summarized as follows: […]

[3] = system: monocotyledonous weeds; assay: as above; assay type: in vivo; details: 700 g/hm^2 to 800 g/hm^2
Text: (§1) Combining the results of indoor and field tests of clacyfos, the herbicidal spectrum of clacyfos can be summarized as follows:
(§2) Echinochloa crusgalli Beava; Digitaria Sanguinalis scop; Alopecurus aequalis; Alopecurus japonicus steud; Setaria viridis; Cynodon dactylon; Eleusine indica; Leptochloa chinensis; Arthraxon hispidus; Eleusine indica; Imperata cyllndrlca; Cyperus difformis; Cyperus iria; Kyllinga brevifolia; Poa cnnua; Monochoria vaginalis; Potamogeton distinctus; Sagittaria pygmaea; Cyperus iria; Eleocharis yokoscensis; Digitaria adscendens; Equisetum arvenense.

[4] = system: Herba Cirsii Jeponici; assay: Inhibitory activity of clacyfos against 22 plants or weeds (B12); details: in vivo
Text: as §1, §2

[5] = system: Beta Vulgaris; assay: as above; details: in vivo
Text: as §1, §2

[6] = system: Brassica pekinensis; assay: as above; details: in vivo
Text: as §1, §2

[7] = system: Rumex crispus L.; assay: as above; details: in vivo
Text: as §1, §2

[8] = system: Eleusine indica (L.) Gaertn; assay: as above; details: in vivo
Text: as §1, §2

[9] = system: Abutilontheophrasti Medicus; assay: as above; details: in vivo
Text: as §1, §2

[10] = system: Amaranthus retroflexus; assay: as above; details: in vivo
Text: as §1, §2

[11] = system: Amaranthus rebroflexus L.; assay: as above; details: in vivo
Text: as §1, §2

[12] = system: Cyperus microiria; assay: as above; details: in vivo
Text: as §1, §2

[13] = system: Brassica campestris; assay: as above; details: in vivo
Text: as §1, §2

[14] = system: Alopecurus aequalis Sobol; assay: as above; details: in vivo
Text: as §1, §2

[15] = system: Digitaria sanguinalis(L.) Scop; assay: as above; details: in vivo
Text: as §1, §2

[16] = system: Echinochloa crusgalli (L.); assay: as above; details: in vivo
Text: as §1, §2

[17] = system: Sinapis alba; assay: as above; details: in vivo
Text: as §1, §2

[18] = system: Eclipta prostrata L.; assay: as above; details: in vivo
Text: as §1, §2

[19] = system: Daucus carota L.; assay: as above; details: in vivo
Text: as §1, §2

[20] = system: Galium aparine; assay: as above; details: in vivo
Text: as §1, §2

[21] = system: Ipomoea heperacea; assay: as above; details: in vivo
Text: as §1, §2

[22] = system: Poa annua L.; assay: as above; details: in vivo
Text: as §1, §2

[23] = system: Medicago saliva; assay: as above; details: in vivo
Text: as §1, §2

[24] = system: Setaria viridis(L.) Beauv; assay: as above; details: in vivo
Text: as §1, §2

[25] = system: Chenopodium album L.; assay: as above; details: in vivo
Text: as §1, §2

Cc1cc(Cl)ccc1OCC(=O)O [2-methyl-4-chlorophenoxyacetic acid]
Increase in production compared with the control agent ([1]; Henan, 32.5 g/mu): acid 32.5 g (5.51%) | phytotoxicity to wheat ([1]; Henan, 32.5 g/mu): a certain phytotoxicity | Increase in production compared with the control agent ([1]; Zaoyang, 40 g/mu): acid 40 g (20.91%)

COP(=O)(OC)C(C)OC(=O)COc1ccc(Cl)cc1Cl (centres unmarked) [clacyfos, O, O-dimethyl-1-(2,4-dichlorophenoxyacetoxy) ethyl phosphonate]
control of the dicotyledonous and sedge weeds listed [2]: can be effectively controlled | control of the monocotyledonous weeds listed [3]: can be controlled | Visual activity [4]: 100% | Visual activity [5]: 95% | Visual activity [6]: 100% | Sensitivity [7]: Sensitive | Visual activity [7]: 80% | Visual activity [8]: 100% | Sensitivity [9]: Sensitive | Visual activity [9]: 85% | Visual activity [10]: 100% | Visual activity [11]: 100% | Sensitivity [12]: Sensitive | Visual activity [12]: 90% | Visual activity [13]: 100% | Sensitivity [14]: Resistance | Visual activity [14]: 0% | Visual activity [15]: 40% | Visual activity [16]: 30% | Visual activity [17]: 95% | Visual activity [18]: 100% | Visual activity [19]: 100% | Visual activity [20]: 60% | Visual activity [21]: 100% | Visual activity [22]: 50% | Sensitivity [23]: Sensitive | Visual activity [23]: 90% | Visual activity [24]: 50% | Visual activity [25]: 100%
